Test results as given in US9220669B2, “Resveratrol ferulate compounds, compositions containing the compounds, and methods of using the same” (ELC Management LLC, priority 2007, dated 2015).

Tested on: endogenous reactive oxygen species (ROS), primarily hydrogen peroxide (H2O2), in normal human epidermal keratinocyte (NHEK) cell cultures
Experiment: Endogenous reactive oxygen species (ROS) level in NHEK cell cultures, dichlorodihydrofluorescein diacetate fluorescence
Format: cell-based
Settings: overnight incubation, fluorescence at 5.5 hour time point, NHEK cells
Method: Specifically, NHEK cells were cultured and plated, followed by treatment with Resveratrol Ferulates at concentrations of about 10 μM, 25 μM, and 50 μM. As comparative examples, some NHEK cells were separated treated with resveratrol at a concentration of about 25 μM. Further as control examples, some NHEK cells were maintained without treatment with either Resveratrol Ferulates or resveratrol. Four samples of NHEK cells were provided for each treatment. After overnight incubation of the cell cultures, dichlorodihydrofluorescein diacetate was added thereinto. Dichlorodihydrofluorescein diacetate is a useful fluorogenic reagent for detecting reactive oxygen species in cells. Upon oxidation by the reactive oxygen species, dichlorodihydrofluorescein diacetate becomes the highly green fluorescent dichlorofluorescein, which can be readily detected by fluorescene spectroscopy. For example, a Gemini EM microplate spectrofluorometer commercially available from Molecular Devices at Sunnyvale, Calif. was employed to measure the fluorescence (Ex450, Em525) of the cell cultures at the 5.5 hour time point, which was used as an indication of the amount of reactive oxygen species (primarily H2O2) in the cells.

SMILES: Oc1ccc(C=Cc2cc(O)cc(O)c2)cc1 [resveratrol, 3,5,4′-trihydroxystilbene]
- average reduction in ROS level in comparison with the control samples (10 μM): about 62.0%
- average reduction in ROS level in comparison with the control samples (25 μM): about 69.5%
